Source: US20250345512A1, “COMBINATION SODIUM-GLUCOSE COTRANSPORTER INHIBITOR (SGLTI) INSULIN THERAPY FOR GLYCEMIC CONTROL IN TYPE 1 DIABETES” (University of Virginia Patent Foundation, priority 2022, published 2025)

Test system: participants with T1D
Assay: Randomized crossover clinical trial (NCT04201496): CGM glycemic outcomes with 5 mg daily empagliflozin adjunctive to AID (Control-IQ, CIQ) or PLGS (Basal-IQ, BIQ)
Type: in vivo, human
Details: for Difference (95% CI): daytime glucose % Time in range of 70 to 180 mg/dL: adjusted for pre-randomization HbA1c
Protocol: FIG. 2 presents a study analysis relative to baseline, control IQ (CIQ) (e.g., AID), and basal IQ (BIQ) (e.g., PLGS) implementation, according to investigation that is demonstrable of one or more embodiments herein. Therein, an experimental arm (G1, G2) providing an initial daily dose of 5 mg empagliflozin (EMPA) is depicted against a control arm (G3, G4) without such dosing (NOEMPA). Relative characteristics of the analysis are provided below.
Study Design: A single-center, randomized, controlled, unblinded, crossover clinical trial (NCT04201496) compared four parallel groups, two groups in the experimental arm (EMPA) with 5 mg daily empagliflozin as adjunctive therapy to PLGS or AID, and two groups in the control arm (NOEMPA) with no drug and with a PLGS system (Basal-IQ, Tandem Diabetes Care) or AID system (Control-IQ, Tandem Diabetes Care). The groups within each arm differed from one another in the order of the randomly assigned crossover technological intervention, relative to PLGS being followed by AID or AID being followed by PLGS, respectively (FIG. 4). The study protocol was approved by the University of Virginia Institutional Review Board (IRB). An investigational device exemption (IDE), including an investigational new drug (IND) application for empagliflozin, was approved by the FDA. Safety aspects were overseen by an external data and safety monitoring board (DSMB). Participants: Major inclusion criteria were T1D treated with insulin for at least one year, use of continuous subcutaneous insulin infusion therapy for at least six months, age 18-65 yrs., no use of glucose lowering agents other than insulin, and Hb1Ac<9% (75 mmol/mol). Randomization: A (1:1:1:1) randomization assigned participants to either Group 1, AID-EMPA (4 weeks) followed by PLGS-EMPA (2 weeks), Group 2, PLGS-EMPA (2 weeks) followed by AID-EMPA (4 weeks), Group 3, AID-NOEMPA (4 weeks) followed by PLGS-NOEMPA (2 weeks), and Group 4, PLGS-NOEMPA (2 weeks) followed by AID-NOEMPA (4 weeks). Procedures: After confirmation of eligibility, participants underwent study equipment and medication training (experimental arm), or only study equipment training (control arm). Study equipment consisted of Dexcom G6® CGM (Dexcom Inc., San Diego, CA), Contour® Next blood glucose (Ascensia Diabetes Care, Basel, Switzerland) and Precision Xtra® blood ketone meters (Abbott, Alameda, CA) with their respective test strips; infusion sets, and the use of the t:slim X2™ insulin pump with Basal-IQ or Control-IQ technologies (Tandem Diabetes Care, San Diego, CA), according to randomization. […] Participants in the experimental arm were asked to record two days of baseline ketone values before initiating the use of the study drug. Thereafter, participants were directed to use the study CGM with EMPA for 1-2 weeks. A tolerance to the medication was assessed prior to the starting of the next study phase, including adherence to the protocol, ketone testing 2-4 times per day with monitored values not greater than 0.6 mmol/L on at least two successive occasions (the first testing upon waking in a fasted state), no adverse events relating to perineal infection or symptomatic postural hypotension, and no evidence of significant hypoglycemia <54 mg/dL, or any other listed adverse effects of the medication. Participants in the control arm were directed to use the study CGM for 1-2 weeks. Sample Size: The total sample size was projected to be 40 participants, assuming 1) 1:1:1:1 randomization; 2) 90% power and type 1 error a=0.01, further reinforcing the feasibility of hierarchical analyses. The projected recruitment sample was n=50, to accommodate up to 20% attrition rate without sacrificing statistical power. Analytical methods: For the primary analysis, TIR during the day in the 4-week AID period was compared between the two EMPA groups versus the two NOEMPA groups using a linear mixed-effects regression model while adjusting for pre-randomization HbAlc and age. […]

[1] = EMPA minus NOEMPA on same insulin system, adjusted for HbA1c
[2] = daytime (7:00-23:00), head prints CIQ-EMPA vs. BIQ-NOEMPA
[3] = daytime (7:00-23:00), CIQ-EMPA vs. BIQ-NOEMPA, BIQ-EMPA vs. CIQ-NOEMPA
[4] = daytime (7:00-23:00), CIQ-EMPA vs. CIQ-NOEMPA, BIQ-EMPA vs. BIQ-NOEMPA
[5] = daytime (7:00-23:00), n = 16, mean ± SD
[6] = daytime (7:00-23:00), n = 16, median (IQR)
[7] = overall, head prints CIQ-EMPA vs. BIQ-NOEMPA

SMILES: OC[C@H]1O[C@@H](c2ccc(Cl)c(Cc3ccc(O[C@H]4CCOC4)cc3)c2)[C@H](O)[C@@H](O)[C@@H]1O [CIQ-EMPA, empagliflozin]
- 24/7 HBGI - median (IQR) (24/7, n = 17): 2.7(2-4.4)
- 24/7 LBGI - median (IQR) (24/7, n = 17): 0.5(0.4-0.6)
- 24/7 glucose level <70 mg/dL (<3.9 mmol/L) - median % time (IQR) (24/7, n = 17): 1.1(0.5-1.5) %
- 24/7 glucose level <70 mg/dL (<3.9 mmol/L) - median % time (IQR) (24/7, n = 17, listed as AID-EMPA): 1.1(0.5-1.5) %
- 24/7 Mean glucose level - (24/7, n = 17, mean ± SD): 137 ± 19 mg/dL
- 24/7 Mean glucose level - (24/7, n = 17, mean ± SD, listed as AID-EMPA): 137 mg/dL
- daytime TIR mean adjusted difference, amounting to hours per day (AID-EMPA vs AID-NOEMPA, daytime 7:00 to 23:00 h): 1.6 hours per day
- Difference (95% CI): 24/7 HBGI [1]: −2.5(−5.3 to 0.2)
- Difference (95% CI): 24/7 LBGI [1]: 0.06(−0.4 to 0.5)
- Difference (95% CI): 24/7 Mean glucose level [1]: −17.3(−35.4 to 0.8) mg/dL
- Difference (95% CI): 24/7 glucose level <70 mg/dL % time [1]: −1.1(−3.2 to 0.9) percentage points
- Difference (95% CI): Daytime CGM CV [1]: −3.3(−6.1 to −0.5) %
- Difference (95% CI): Daytime CGM SD [1]: −9.3(−17.8 to −0.93) mg/dL
- Difference (95% CI): 24/7 glucose level <70 mg/dL % time (EMPA minus NOEMPA on same insulin system, adjusted for HbA1c, listed as AID-EMPA): −1.1 percentage points
- Difference (95% CI): daytime glucose % Time in range of 70 to 180 mg/dL (EMPA minus NOEMPA on same insulin system): 9.9(0.6 to 19.1) percentage points
- Difference (95% CI): daytime glucose % Time in range of 70 to 180 mg/dL (EMPA minus NOEMPA on same insulin system, listed as AID-EMPA): +9.9 percentage points
- Primary: daytime glucose % Time in range of 70 to 180 mg/dL (3.9-10.0 mmol/L) (daytime 7:00 to 23:00 h, n = 17, mean ± SD): 81 ± 10%
- Primary: daytime glucose % Time in range of 70 to 180 mg/dL (3.9-10.0 mmol/L) (daytime 7:00 to 23:00 h, n = 17, mean ± SD, listed as AID-EMPA): 81+10%
- Difference (95% CI): % CGM time 70-140 mg/dL (<3.9-7.8 mmol/L) [2]: −1.4 percentage points
- Difference (95% CI): % CGM time <60 mg/dL (<3.3 mmol/L) [2]: −0.5 percentage points
- Difference (95% CI): % CGM time >180 mg/dL (>10.0 mmol/L) [2]: −0.8 percentage points
- Difference (95% CI): % CGM time >250 mg/dL (>13.9 mmol/L) [2]: −1.6 percentage points
- Difference (95% CI): % CGM time >300 mg/dL (>16.7 mmol/L) [2]: −0.9 percentage points
- Difference (95% CI): CGM HBGI [2]: −6.3
- Difference (95% CI): CGM LBGI [2]: −0.3
- Difference (95% CI): Mean CGM glucose [2]: 0.2 mg/dL
- Difference (95% CI): % CGM time <70 mg/dL (<3.9 mmol/L) (daytime (7:00-23:00), head prints CIQ-EMPA vs. BIQ-NOEMPA, listed as AID-EMPA): −1 percentage points
- Difference (95% CI): % CGM time 70-140 mg/dL (<3.9-7.8 mmol/L) [3]: 16.2 percentage points
- Difference (95% CI): % CGM time <60 mg/dL (<3.3 mmol/L) [3]: −0.6 percentage points
- Difference (95% CI): % CGM time <70 mg/dL (<3.9 mmol/L) [3]: −0.7 percentage points
- Difference (95% CI): % CGM time >180 mg/dL (>10.0 mmol/L) [3]: −17.6 percentage points
- Difference (95% CI): % CGM time >250 mg/dL (>13.9 mmol/L) [3]: −9.2 percentage points
- Difference (95% CI): % CGM time >300 mg/dL (>16.7 mmol/L) [3]: −3.6 percentage points
- Difference (95% CI): CGM HBGI [3]: −4.4
- Difference (95% CI): CGM LBGI [3]: 0
- Difference (95% CI): CGM SD [3]: -15.5 mg/dL
- Difference (95% CI): Mean CGM glucose [3]: -23.6 mg/dL
- Difference (95% CI): % CGM time <50 mg/dL (<2.8 mmol/L) [4]: −0.2 percentage points
- Difference (95% CI): % CGM time <60 mg/dL (<3.3 mmol/L) [4]: −0.7 percentage points
- Difference (95% CI): % CGM time >180 mg/dL (>10.0 mmol/L) [4]: −10.3 percentage points
- Difference (95% CI): % CGM time >250 mg/dL (>13.9 mmol/L) [4]: −3.8 percentage points
- Difference (95% CI): % CGM time >300 mg/dL (>16.7 mmol/L) [4]: −1.3 percentage points
- Difference (95% CI): CGM CV (%) [4]: −3.3%
- Difference (95% CI): CGM HBGI [4]: −2.2
- Difference (95% CI): CGM LBGI [4]: 0
- Difference (95% CI): CGM SD [4]: -9.3 mg/dL
- Difference (95% CI): Mean CGM glucose [4]: -14.6 mg/dL
- % CGM time 70-140 mg/dL (3.9-7.8 mmol/L) [5]: 56.7 ± 13.4%
- % CGM time 70-180 mg/dL (3.9-10.0 mmol/L) [5]: 80.6 ± 10.5%
- CGM CV (%) [5]: 30.4 ± 3.5%
- CGM SD [5]: 42.6 ± 9.7 mg/dL
- Mean CGM glucose [5]: 139 ± 19 mg/dL
- % CGM time <50 mg/dL (<2.8 mmol/L) [6]: 0(0-0.1) %
- % CGM time <60 mg/dL (<3.3 mmol/L) [6]: 0.4(0-0.5) %
- % CGM time <70 mg/dL (<3.9 mmol/L) [6]: 1.2(0.6-1.7) %
- % CGM time >180 mg/dL (>10.0 mmol/L) [6]: 15.8(6.2-26) %
- % CGM time >250 mg/dL (>13.9 mmol/L) [6]: 1.2(0.4-3.7) %
- % CGM time >300 mg/dL (>16.7 mmol/L) [6]: 0(0-0.6) %
- CGM HBGI [6]: 3.4(1.9-5.5)
- CGM LBGI [6]: 0.5(0.4-0.6)
- Daytime CGM CV - % (daytime, n = 17, mean ± SD): 30.4 ± 3.5%
- Daytime CGM SD - (daytime, n = 17, mean ± SD): 42.6 ± 9.8 mg/dL
- Difference: CGM HBGI [7]: −1.1
- Difference: CGM LBGI [7]: −0.3
- Difference: % CGM time <70 mg/dL (<3.9 mmol/L) (overall, head prints CIQ-EMPA vs. BIQ-NOEMPA, listed as AID-EMPA): −1.2 percentage points
